System: HEK-CMV-Luc2-Hygro cells
Experiment: High-throughput genome-wide siRNA screen and validation screen for luciferase expression
Format: cell-based, human
Settings: for Viable cell density (%) / per cell luciferase yield (%): Table 4, negative control = 100%; for Viable cell density (%) / per cell luciferase yield (%) / per_cell / VIA: primary screen, 72 h; for per_cell / VIA: Table 3; for per_cell: per cell luciferase yield relative to negative control; for VIA: viable cell density as % of negative control
Method: The Silencer Select™ Human genome siRNA library (Ambion), which targets 21,585 human genes with 3 siRNAs per gene, was used for screening. Each siRNA is arrayed in an individual well (Corning 3570, 384 well, white, solid bottom plates). The transfection was done in duplicates: 0.8 pmol of each siRNA was spotted to a well of a 384-well plate (Corning) and 20 μL of serum-free DMEM containing 0.07 μL of Lipofectamine™ RNAiMax (Life Technologies) was then added to each well. This lipid-siRNA mixture was incubated at ambient temperature for 30 min prior to addition of 4000 cells in 20 μL of DMEM containing 20% FBS (Gibco). After incubating the transfected cells at 37° C. in 5% CO2 for 72 hours, 20 μL of ONE-Glo™ Reagent (Promega) was added to one set of replicates for ‘overall luciferase yield’ quantification and 20 μL of CellTiter-Glo™ Reagent (Promega) was added to the second set of replicates for ‘viable cell density’ measurement. All plates were incubated at room temperature for 20 minutes to stabilize the luminescent signal and the signal was then measured with PerkinElmer Envision 2104 Multilabel™ plate reader.
The 56 genes which got targeted by at least two independent siRNAs (out of three) resulting in enhanced luciferase production with MAD-based z-score>3 from the primary screen were subjected to validation screen using 3 additional Silencer™ siRNAs (Ambion) with different sequences from those used in the primary screen. […] The transfection and assay processes were-the same as the primary genome-wide screen. Data visualization was performed in R computational environment (available on the World Wide Web at R-project.org/) by using ‘hexbin’ and ‘ggplot2’ packages.
The screen generated end-point data for ‘overall luciferase yield’ and ‘viable cell density’ in each well. For each plate, the median value of the negative control wells was set as 100% and was used to normalize corresponding sample wells. The ‘overall luciferase yield’ and ‘viable cell density’ were exported as % of negative control and the median absolute deviation (MAD)-based z-score was calculated for each sample.

[1] = Table 6, polyamine pathway gene siRNAs

Row | Substance | Viable cell density (%) | per cell luciferase yield (%) | per_cell | VIA | also measured
1 | 138 (CCCUCCUACUAUUACCCGUTT; chemistry not given here; listed as Homo sapiens) [compound 138] | 96.869% | 162.999% | – | – | –
2 | 90 (GGUGCUCUCGGUUGCACAATT; chemistry not given here; listed as Homo sapiens) [compound 90] | – | – | 187.4 | 82.33 | –
3 | 195 (UGAAGAUAAUCGAGAAAUATT; chemistry not given here; listed as Homo sapiens) [compound 195] | 67.947% | 258.104% | – | – | –
4 | 197 (GACUCAGAGUAACAACGCATT; chemistry not given here; listed as Homo sapiens) [compound 197] | 95.471% | 162.372% | – | – | –
5 | 89 (GGAUCACGCAGCUCAAGAUTT; chemistry not given here; listed as Homo sapiens) [compound 89] | – | – | 161.6 | 91.54 | –
6 | 143 (GCAAAGAUAGCGAGAAAUATT; chemistry not given here; listed as Homo sapiens) [compound 143] | 75.599% | 193.846% | – | – | –
7 | 218 (GGACCUCCCUGUGAAUGAUTT; chemistry not given here; listed as Homo sapiens) [compound 218] | – | – | – | – | Luciferase activity (%) [1]: 95.4%; Per cell luciferase yield (%) [1]: 110.9%; Viable cell number (%) [1]: 86.0%
8 | 173 (GACUAUUGAUACCAAAACATT; chemistry not given here; listed as Homo sapiens) [compound 173] | 82.689% | 209.398% | – | – | –
9 | 82 (GUCCUAUCACCGUAUCUUATT; chemistry not given here; listed as Homo sapiens) [compound 82] | – | – | 266.6 | 55.96 | –
10 | 45 (GGAUAUUGGAGGCUAGUCATT; chemistry not given here; listed as Homo sapiens) [compound 45] | – | – | 157.9 | 89.68 | –
11 | 95 (CAAGUCACCUGUUACCUCATT; chemistry not given here; listed as Homo sapiens) [compound 95] | 88.955% | 171.805% | – | – | –
12 | 81 (GUUUCAUCUGGGUUCGCUATT; chemistry not given here; listed as Homo sapiens) [compound 81] | – | – | 233.6 | 62.66 | –
13 | 212 (GAGCAGAGAUCAUAACCAATT; chemistry not given here; listed as Homo sapiens) [compound 212] | 108.211% | 141.104% | – | – | –
14 | 120 (GGAUCAUGCUAAAAGGAGATT; chemistry not given here; listed as Homo sapiens) [compound 120] | 54.945% | 311.516% | – | – | –
15 | 165 (AGGUCAAUGUGACUUUCCATT; chemistry not given here; listed as Homo sapiens) [compound 165] | 105.029% | 161.785% | – | – | –
16 | 142 (AAGUCAACAUAGCCCGAAATT; chemistry not given here; listed as Homo sapiens) [compound 142] | 111.487% | 145.707% | – | – | –
17 | 180 (CCACCCUACUAUGUACUGUTT; chemistry not given here; listed as Homo sapiens) [compound 180] | 93.181% | 185.763% | – | – | –
18 | 113 (GCAUCAGCUCACAACAAAATT; chemistry not given here; listed as Homo sapiens) [compound 113] | 35.915% | 409.361% | – | – | –

Row | Substance | Viable cell density (%) | per cell luciferase yield (%) | per_cell | VIA | also measured
19 | 78 (CGGAAUCAAUGAUCCUGUATT; chemistry not given here; listed as Homo sapiens) [compound 78] | – | – | 212.7 | 71.39 | –
20 | 118 (UGUGGACUGAGGUACCCAATT; chemistry not given here; listed as Homo sapiens) [compound 118] | 58.901% | 247.842% | – | – | –
21 | 132 (GGACGGAAGCGAAAAUCGATT; chemistry not given here; listed as Homo sapiens) [compound 132] | 71.473% | 216.209% | – | – | –
22 | 200 (GCAACAGAAUCGAGCAAGATT; chemistry not given here; listed as Homo sapiens) [compound 200] | 105.583% | 154.286% | – | – | –
23 | 59 (AGAUCUUUGUCAAGGUGUATT; chemistry not given here; listed as Homo sapiens) [compound 59] | – | – | 153.4 | 96.26 | –
24 | 39 (CGCUUUAACUGGAAGCUCUTT; chemistry not given here; listed as Homo sapiens) [compound 39] | – | – | 147 | 103.7 | –
25 | 182 (CAGUUACUUUCAAAACUCUTT; chemistry not given here; listed as Homo sapiens) [compound 182] | 91.714% | 202.960% | – | – | –
26 | 46 (CUCUUAUGGUAACCAAUGATT; chemistry not given here; listed as Homo sapiens) [compound 46] | – | – | 160.2 | 91.56 | –
27 | 76 (CUUUUAAUGUUAAACUACATT; chemistry not given here; listed as Homo sapiens) [compound 76] | – | – | 133.6 | 111 | –
28 | 184 (GCCUGAAUCUUGUCCCAAATT; chemistry not given here; listed as Homo sapiens) [compound 184] | 82.390% | 228.483% | – | – | –
29 | 171 (CCCUGUUCAUUAUAAGUCUTT; chemistry not given here; listed as Homo sapiens) [compound 171] | 279.253% | 272.683% | – | – | –
30 | 152 (CGAUGUUCGUGGACAUUCUTT; chemistry not given here; listed as Homo sapiens) [compound 152] | 80.013% | 234.608% | – | – | –
31 | 66 (GCAACAGAAUCGAGCAAGATT; chemistry not given here; listed as Homo sapiens) [compound 66] | – | – | 154.3 | 105.6 | –
32 | 185 (GAAGAAGACUCUGUACUCATT; chemistry not given here; listed as Homo sapiens) [compound 185] | 66.511% | 215.853% | – | – | –
33 | 79 (AAGUCAACAUAGCCCGAAATT; chemistry not given here; listed as Homo sapiens) [compound 79] | – | – | 145.7 | 111.5 | –
34 | 111 (CAACCUUAUUAUCAUUGAATT; chemistry not given here; listed as Homo sapiens) [compound 111] | 49.133% | 300.611% | – | – | –
35 | 40 (CGAUGUUCGUGGACAUUCUTT; chemistry not given here; listed as Homo sapiens) [compound 40] | – | – | 234.6 | 80.01 | –

Reference: patent US20160319277A1, “METHODS OF IMPROVED PROTEIN PRODUCTION USING MIRNAs AND SIRNAs” (THE JOHNS HOPKINS UNIVERSITY, priority 2015, published 2016)
